{"source": "patent US8927130B2", "about": "“Electrolyte for redox flow battery and redox flow battery including the same” (Samsung Electronics Co., Ltd., priority 2011, dated 2015)", "experiment": "Cyclic voltammetry of electrolytes for 100 cycles", "format": "physicochemical", "conditions": "in the electrolytes of Examples 1 and 2 (GBL, 0.5 M TEABF4), cyclic voltammetry 100 cycles", "method": "A current value as a function of potential was measured for 100 cycles by using each of the electrolytes of Examples 1 and 2, at a potential scan rate of 10 mV/s and in a potential scan range of about −2 V to about 1.25 V. A cell for measuring the cyclic voltammogram included an Ag/Ag^+ electrode in which 0.3 M of AgNO3 was dissolved in acetonitrile as a solvent as a reference electrode, carbon felt as a working electrode, and platinum as a counter electrode. The measurement results are illustrated in FIGS. 6A and 6B.", "data": [{"smiles": "O=S(=O)([N-]S(=O)(=O)C(F)(F)F)C(F)(F)F.O=S(=O)([N-]S(=O)(=O)C(F)(F)F)C(F)(F)F.[Ni+2].c1ccc(-c2ccccn2)nc1.c1ccc(-c2ccccn2)nc1.c1ccc(-c2ccccn2)nc1", "note": "[Preparation Example 1, Ni(bpy)3(TFSI)2]", "values": [{"measurement": "stability of the redox couple of the metal salt in the electrolyte", "value": "stable"}]}]}
